Series [1] concerns Gallus gallus.
The test system of series [2] is Apis mellifera. The conditions noted are these: acute, mortality.
Series [3] has as its system Rattus norvegicus. As to conditions: for LD50: acute, mortality.
Series [4] deals with Pontoscolex corethrurus. As to conditions: acute; mortality.
Series [5] relates to Mus musculus.
Series [6] deals with Oncorhynchus mykiss. The conditions noted are these: acute; duration: 96 hours; mortality.
For series [7], the system named is Colinus virginianus. The conditions noted are these: acute; oral; mortality.
In series [8] the test system is Sus scrofa. As to conditions: for LEL: subchronic, diet.
In series [9] the test system is Homo sapiens. As to conditions: clinical; for LEL: no effects.
The test system of series [10] is Canidae. The conditions noted are these: acute; injection; intravenous; Beagle; hematological.
The mark [11] stands for this setting: duration: 6 weeks, oral, M/F, Large White x Landrace, clinical chemistry.

The results in this text go back to EPA's ToxValDB 9.5.

SMILES strings stand for the structures. Values after ≈ are worked out from the molar mass of the structure shown. Values joined by “and” are separate entries in the source; they are usually repeats but may differ in a detail not shown here. Equal entries are not always repeated.

Turning to `CSCCC(N)C(=O)[O-].O=S(=O)([O-])O.[Zn+2]` (stereo not given), the LEL in series [1] (subchronic, duration: 35 days, M, Chicken, no effects) came out at 120 mg/kg-day.
Turning to `C[C@@H]1O[C@H](O[C@H]2[C@H](O[C@H]3[C@@H](OC[C@H]4O[C@@H](O[C@@H]([C@H](O)[C@@H](O)CO)[C@H](O)CO)[C@H](O)[C@@H](O)[C@@H]4O[C@@H]4O[C@H](CO[C@H]5OC[C@@H](O)[C@H](O)[C@H]5O)[C@@H](O)[C@H](O)[C@H]4O)OC[C@@H](O)[C@@H]3O)O[C@H](CO)[C@H](O)[C@@H]2O)[C@@H](O)[C@H](O)[C@@H]1O`, the LD50 in [2] (oral, unspecified) was > 100 µg/piece; in series [3] (oral), > 5000 mg/kg-day.
For the molecule `CC(=O)OC(C)c1ccccc1` (racemic) [(+/-)-alpha-Methylbenzyl acetate], in series [4], the LC50 was found to be 1480 mg/kg.
As for `CC12CCC(CC1)C(C)(C)O2` [1,8-Cineol], the NOAEL in series [5] (short-term, duration: 28 days, oral, capsule, M/F, other) is 562 mg/kg-day.
Regarding `O=C1CCSC1` [3(2H)-Thiophenone, dihydro-], the LC50 in series [4] is 305 mg/kg.
`CC(C)=CCC/C(C)=C/CO` [(2E)-3,7-Dimethyl-2,6-octadien-1-ol] yielded an LC50 in series [6] of 11.6 µg/mL (≈ 75.2 µM). The same molecule gave an LD50 in series [3] (oral) of 3600 mg/kg-day.
`CC1=CC(=O)CC(C)(C)[C@@]1(O)/C=C/C(C)=C\C(=O)O` [(+)-(S)-Abscisic acid]: the LD50 was > 2250 mg/kg-day in series [7] and > 5000 mg/kg-day in [3] (oral). Moreover, in series [3] (reproduction developmental, no effects), the NOAEC was ≥ 1360 mg/kg-day.
Turning to `O=S(=O)([O-])c1ccc(N=Nc2cc(S(=O)(=O)[O-])c3ccccc3c2O)c2ccccc12.[Na+].[Na+]` [Azorubine], the no observed adverse effect level (NOAEL) in series [5] (chronic, hematological) was found to be 375 mg/kg-day; in [3] (chronic, M/F, body weight) it was 400 mg/kg-day.
In [8] (setting [11]), `C[N+](C)(C)CC(=O)O.[Cl-]` [Betaine hydrochloride] displayed an LEL of 10000 mg/kg-day.
For the molecule `C[N+](C)(C)CC(=O)[O-]` [Betaine], the LEL in [9] (duration: 3 months, oral) came out at 4000 mg/day; in [9] (duration: 6 months, oral), 4000 mg/day; in series [8] (setting [11]) it was 10000 mg/kg-day.
Consider `C=C1CC[C@H](O)C/C1=C/C=C1\CCC[C@]2(C)[C@@H]([C@H](C)CCCC(C)(C)O)CC[C@@H]12` [Calcifediol], for which the LEL in [1] (subchronic, duration: 35 days, oral, diet, M/F, no effects) turned out to be 0.07 mg/kg-day; in series [8] (duration: 42 days, oral, Not specified, no effects) it was 0.5 mg/kg-day.
For `CN/C(=N\[N+](=O)[O-])NCc1cnc(Cl)s1` [Clothianidin], the LD50 in [2] (dermal) is 0.0275 µg/piece and 0.0258 µg/piece; in series [2] (duration: 48 hours, dermal), 0.0275 µg/piece; in series [2] (duration: 48 hours, oral, unspecified) it was 0.00379 µg/piece; in series [2] (oral, unspecified), 0.00379 µg/piece.
In the case of `[Cu+2].[O-2]` [Cupric oxide], the NOAEL in series [9] (duration: 12 weeks, oral, M, clinical chemistry) came out at 10 mg/day.
With `CC(=O)OC[C@]12CCC(C)=C[C@H]1O[C@@H]1[C@H](O)[C@@H](OC(C)=O)[C@@]2(C)[C@]12CO2` [Diacetoxyscirpenol], the lowest observed adverse effect level (LOAEL) was determined as 0.031 mg/kg-day in series [10]; 0.01 mg/kg-day in [1] (subchronic, duration: 35 days, M, Chicken, histopathology: neoplastic); 0.08 mg/kg-day in series [8] (short-term, oral, gavage, Not specified, histopathology: neoplastic). The no-observed-adverse-effect level (NOAEL) amounted to 0.065 mg/kg-day in [9] (injection, intravenous, hematological) and 0.032 mg/kg-day in series [9] (injection, intravenous, other).
Turning to `[Cl-].[Cu+2].[Cu+2].[OH-].[OH-].[OH-]` [Dicopper chloride trihydroxide], the LEL was 390 mg/kg-day in series [1] (chronic, duration: 16 weeks, oral, diet, no effects); 600 mg/kg-day in series [1] (short-term, duration: 21 days, oral, diet, M/F, food consumption); 450 mg/kg-day and 300 mg/kg-day in series [1] (short-term, duration: 21 days, oral, diet, clinical chemistry).
On to `CCCCCCCC/C=C\CCCCCCCCCCCC(=O)O` [Erucic acid], for which the lowest-observed-adverse-effect level (LOAEL) in [1] (chronic, histopathology: nonneoplastic) worked out at 20 mg/kg-day. Further, the NOAEL in [3] (short-term, duration: 7 days, oral, diet, M, Sprague-Dawley, histopathology: nonneoplastic) stood at 700 mg/kg-day; in series [8] (short-term, duration: 14 days, M/F, Not specified, histopathology: nonneoplastic) it was 700 mg/kg-day.
